Consider 59 compounds from the METLIN SMRT retention time set (Domingo-Almenara et al. 2019).

This data set in a line: gradient 5% acetonitrile 3 min, to 50% in 2 min, to 85% in 15 min, held 3 min, 100 µL/min. The settings on record: column: Zorbax Extend-C18 2.1 x 50 mm; eluents: water / acetonitrile, 0.1% formic acid. Put shortly:
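Data were gathered over 3 months by HPLC coupled to a quadrupole time-of-flight mass spectrometer, operated in positive and negative ionization mode. Mixtures of ~100 pure standards ran on a Zorbax Extend-C18 column (2.1 × 50 mm, 1.8 μm) at 100 μL/min, with water and acetonitrile each containing 0.1% formic acid and dead and dwell volumes of 40 μL and 900 μL. Retention time was read from adduct peaks picked by computer and checked manually.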
For `O=C(NCC1CCN(C(=O)COc2ccccc2)CC1)Nc1cccc(C(F)(F)F)c1`, the RP-LC retention time came out at 840 s.
Under `CCc1ccc(NC(=O)Cn2ncn3c(C)c(C(=O)NCc4ccccc4)c(C)c3c2=O)cc1` stands 863 s; under `COc1ccc(Cc2nc3nccc(-c4cccnc4)n3n2)cc1`, 692 s; under `Cc1ccc(N2CCC(NC(=O)Nc3cc(C)cc(C)c3)C2=O)cc1` (centres undefined), 931 s.
Under `Cc1ccc(N2CCN(C(=O)CN3CCN(Cc4cccc(Cl)c4)C3=O)CC2)cc1` stands 905 s; under `CCN1C(=O)CCc2cc(NC(=O)c3ccn(CC)n3)ccc21`, 701 s.
On to `CCOc1nc2ccccc2nc1N1CCCC(C(=O)Nc2ccc(OC)c(Cl)c2)C1` (centres undefined), for which the RP-LC retention time is 1240 s.
Under `Cc1ccc(NS(=O)(=O)c2cc(-c3[nH]ncc3C(=O)N(C)C)oc2C)cc1` stands 690 s; under `CCOc1ccc(CC(=O)N2CC(C(=O)NC)C3(CCCC3)C2)cc1OCC` (centres undefined), 726 s; under `COc1ccc(-n2c(=O)c3sccc3n(Cc3nc(-c4cccc(C)c4)no3)c2=O)cc1`, 1020 s.
`Cc1ccc(Cn2c(=O)c(N3CCCC(C(=O)NCCc4ccco4)C3)nc3ccccc32)cc1` (centres undefined): the RP-LC retention time was determined as 1090 s.
Under `Fc1cccc(-c2noc(-c3nc(-c4ccc5c(c4)OCO5)no3)n2)c1` stands 1220 s; under `Fc1ccc(CN2CCc3nc(N4CCOCC4)ncc3C2)cc1`, 608 s; under `O=C(NCc1ccc(Cl)cc1)C1CCN(S(=O)(=O)c2cc(C(=O)N3CCCC3)cs2)CC1`, 916 s.
`Cc1ccc2c(Nc3ccc(CC(=O)O)cc3)c(C(=O)N3CCCCC3C)cnc2n1` (centres undefined) displayed an RP-LC retention time of 580 s.
Under `COc1ccc(-c2cc(C(F)(F)F)n3nc(C(=O)O)cc3n2)cc1` stands 851 s; under `CC(C)(C)c1noc(-c2ccc(-n3cnc(C(=O)NCc4ccccc4)c3)nc2)n1`, 1060 s; under `COc1ccc(NC(=O)Cn2nc3nc(N4CCCC4)ccn3c2=O)cc1OC`, 617 s.
Under `Cc1ccccc1-n1c(=O)c2sccc2n(Cc2nc(-c3ccc(F)c(Cl)c3)no2)c1=O` stands 1110 s.
Take `Cc1oc2ncnc(N3CCCC(C(=O)NCc4ccccc4Cl)C3)c2c1C` (centres undefined): the RP-LC retention time worked out at 892 s.
`COC(=O)c1ccc2c(=O)n(-c3cc(C)cc(C)c3)c(N3CCCC3)nc2c1` had an RP-LC retention time of 1240 s.
Under `Cc1ccc(Sc2nccnc2N2CCC(C(=O)N3CCN(c4cccc(C)c4)CC3)CC2)cc1` stands 1310 s.
Under `O=C(NCC(=O)N1CCOCC1)c1c[nH]c2ccccc12` stands 593 s.
Under `CCOc1cccc(-c2noc(Cn3c(=O)n(CCc4ccccc4)c(=O)c4sccc43)n2)c1` stands 660 s; under `COc1ccc2nc(CN3CCN(S(=O)(=O)c4cccs4)CC3)[nH]c2c1`, 584 s; under `COc1ccc(-c2noc(C3CC(=O)N(c4ccccc4)C3)n2)cc1OC` (centres undefined), 964 s.
As for `Cn1nc(-c2nc(-c3ccc(F)cc3)no2)c2c1CCN(C(=O)NC1CCCCC1)C2`, the RP-LC retention time was found to be 979 s.
Under `COc1cc(Cl)ccc1C(=O)N1CCN(c2ccc(-c3nc(C)c(C)s3)cn2)CC1` stands 950 s; under `CC(C)C(=O)N1CCc2cc(C(=O)N(C)C)ccc21`, 678 s.
Under `Cc1nc(-c2ccncc2)nc2c1CCC(=O)N2CC1COCCO1` (centres undefined) stands 591 s; under `COc1cccc(CNC(=O)N2CCCCC2c2nncn2C)c1` (centres undefined), 625 s; under `Cn1cc(-c2cc3n(n2)CCC(=O)N3CCCC(=O)N2CCCCC2)c2ccccc21`, 802 s.
Compound `CN1CCCc2cc(C(=O)NCc3cccc(F)c3)sc21` showed an RP-LC retention time of 915 s.
Under `COc1ccccc1CNc1ccc(-c2nc(-c3cccc(F)c3)no2)cn1` stands 1230 s.
Under `O=C(NCC1CCCO1)c1ccc2nc(CCc3ccccc3)oc2c1` (centres undefined) stands 840 s; under `O=C1CCCN1CN(C(=O)c1ccccc1F)c1nc2ccccc2s1`, 866 s.
Under `Cc1nc(-c2ccccc2)c(-c2ccncc2)o1` stands 855 s; under `O=C(NCCN1CCOCC1)c1ccc(-c2ccc(N3CCCCC3)nc2)cc1`, 557 s.
`Cn1nc(-c2nc(-c3ccccc3)no2)c2c1CCN(C(=O)Nc1cccc(Cl)c1)C2` showed an RP-LC retention time of 1050 s.
Under `Cc1c(C(=O)NC2CCCC2)cnn1-c1cc(-c2nc(C(C)(C)C)no2)ccn1` stands 1130 s; under `COc1ccc(N2CCN(C(=O)COc3nccc(C)n3)CC2)cc1`, 617 s; under `COc1ccc(Cl)cc1NC(=O)N1CCN(c2ccc3nncn3n2)CC1`, 667 s.
Under `COC(=O)c1c(C)[nH]c(C(=O)N2CCC(CC(=O)NCCN3CCOCC3)CC2)c1C` stands 584 s; under `CCCCOCCCNCc1ccc2c(c1)n(C)c(=O)n2C`, 593 s.
Under `Fc1ccccc1-c1nc(-c2cccc(-c3ccn[nH]3)c2)no1` stands 977 s.
In turn, `CCOc1ccc(-c2nc(Cc3noc(-c4ccncc4)n3)c(C)o2)cc1` registered an RP-LC retention time of 1010 s.
Under `O=C([C@@H]1C[C@H](F)CN1C(=O)c1ccc(F)cc1)N1CCOCC1` stands 608 s.
`CCCCNC(=O)CCc1nc(N2CCCCCC2)c2c(C)noc2n1` came in with an RP-LC retention time of 842 s.
Under `COc1cccc(CN2CCC3(CC2)C(OC)CN3c2cccc(F)c2)n1` (centres undefined) stands 777 s; under `Cc1cccc(C)c1Nc1c(-c2ccccc2O)nc2ncccn12`, 705 s; under `COCCN1C(=O)[C@H]2CN(Cc3ccccc3C(F)(F)F)C[C@H]2C1=O`, 849 s.
Under `CCn1ccc(C(=O)NCC2Cn3cccc3C(=O)N2C)n1` (centres undefined) stands 596 s; under `O=c1n(Cc2ccccc2F)nc2c(S(=O)(=O)N3CCN(c4ccc(F)cc4)CC3)cccn12`, 969 s.
Under `Cc1ccn2c(NC(=O)c3ccc(Cl)c([N+](=O)[O-])c3)c(-c3ccc(F)cc3)nc2c1` stands 757 s; under `O=C(Nc1ccc(Cl)cc1)N1CCc2nc(-c3ccc(Cl)cc3)ncc2C1`, 1130 s; under `CCOc1ccc(S(=O)(=O)N2CCCC(C(=O)NCCCOC)C2)cc1C` (centres undefined), 847 s.
The compound `Cc1cccc2nc(-c3ccc(O)cc3)c(Nc3ccc4c(c3)OCCO4)n12` had an RP-LC retention time of 646 s.
`Cc1cccc(N2CCN(c3ccc4nnc(CCc5nc(-c6ccncc6)no5)n4n3)CC2)c1` returned an RP-LC retention time of 846 s.
Under `CCn1c(CCC(=O)NCc2cccc(F)c2)nc2ccccc2c1=O` stands 700 s.
